Among the data in ChEMBL document CHEMBL3525955, “Glucuronidation of the red clover isoflavone irilone by liver microsomes from different species and human UDP-glucuronosyltransferases” (Drug Metab Dispos, 2011) are Drug metabolism and Activity values, retold here.

What all share (type): ADME
Data set [1] addresses T1, UDP-glucuronosyltransferase 1A7 (Homo sapiens, UniProt Q9HAW7).
T1 sequence (Q9HAW7 whole entry): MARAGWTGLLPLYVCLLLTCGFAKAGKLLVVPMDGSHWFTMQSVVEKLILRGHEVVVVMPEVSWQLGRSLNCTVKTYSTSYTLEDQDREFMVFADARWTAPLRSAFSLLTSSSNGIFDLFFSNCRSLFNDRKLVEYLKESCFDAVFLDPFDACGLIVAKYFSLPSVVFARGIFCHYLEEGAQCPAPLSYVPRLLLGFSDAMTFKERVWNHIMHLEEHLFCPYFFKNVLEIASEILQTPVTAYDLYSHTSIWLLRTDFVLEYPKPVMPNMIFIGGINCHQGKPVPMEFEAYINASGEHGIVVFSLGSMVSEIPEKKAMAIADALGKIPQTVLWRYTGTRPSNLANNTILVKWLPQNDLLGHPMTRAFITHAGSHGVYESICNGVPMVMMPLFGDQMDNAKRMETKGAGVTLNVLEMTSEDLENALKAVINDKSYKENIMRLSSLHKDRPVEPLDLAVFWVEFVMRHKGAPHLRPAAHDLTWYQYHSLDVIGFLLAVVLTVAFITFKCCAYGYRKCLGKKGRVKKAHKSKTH
The data set is described as follows: Drug level assessed as human recombinant UGT1A7-mediated glucuronidation treated with 25 uM irilone incubated for 5 mins prior to UDPGA addition measured after 90 mins by HPLC-DAD analysis. Conditions: recombinant enzyme, 1.5 h.

The target of data set [2] is T2, UDP-glucuronosyltransferase 1A9 (Homo sapiens, UniProt O60656).
T2 sequence (O60656 whole entry): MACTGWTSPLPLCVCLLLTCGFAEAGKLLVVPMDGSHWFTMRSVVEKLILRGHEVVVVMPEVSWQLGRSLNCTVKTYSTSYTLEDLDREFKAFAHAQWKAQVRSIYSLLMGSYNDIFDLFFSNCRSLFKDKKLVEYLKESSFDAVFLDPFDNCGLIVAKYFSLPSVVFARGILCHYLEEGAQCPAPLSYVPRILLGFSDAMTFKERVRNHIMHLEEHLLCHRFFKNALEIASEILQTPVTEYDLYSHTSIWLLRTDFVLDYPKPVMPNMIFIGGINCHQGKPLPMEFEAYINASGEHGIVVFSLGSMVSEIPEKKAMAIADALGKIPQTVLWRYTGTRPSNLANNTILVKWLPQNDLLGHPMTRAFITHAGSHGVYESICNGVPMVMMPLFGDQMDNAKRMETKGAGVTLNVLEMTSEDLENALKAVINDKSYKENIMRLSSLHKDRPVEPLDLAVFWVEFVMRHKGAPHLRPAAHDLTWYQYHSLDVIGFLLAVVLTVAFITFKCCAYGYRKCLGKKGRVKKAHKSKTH
The data set is described as follows: Drug level assessed as human recombinant UGT1A9-mediated glucuronidation formation treated with irilone incubated for 5 mins prior to UDPGA addition measured after 90 mins by HPLC-DAD analysis. The conditions noted are these: recombinant enzyme, 1.5 h.

Data set [3] concerns the target T3, UDP-glucuronosyltransferase 1A1 (Homo sapiens, UniProt P22309).
T3 sequence (P22309 whole entry): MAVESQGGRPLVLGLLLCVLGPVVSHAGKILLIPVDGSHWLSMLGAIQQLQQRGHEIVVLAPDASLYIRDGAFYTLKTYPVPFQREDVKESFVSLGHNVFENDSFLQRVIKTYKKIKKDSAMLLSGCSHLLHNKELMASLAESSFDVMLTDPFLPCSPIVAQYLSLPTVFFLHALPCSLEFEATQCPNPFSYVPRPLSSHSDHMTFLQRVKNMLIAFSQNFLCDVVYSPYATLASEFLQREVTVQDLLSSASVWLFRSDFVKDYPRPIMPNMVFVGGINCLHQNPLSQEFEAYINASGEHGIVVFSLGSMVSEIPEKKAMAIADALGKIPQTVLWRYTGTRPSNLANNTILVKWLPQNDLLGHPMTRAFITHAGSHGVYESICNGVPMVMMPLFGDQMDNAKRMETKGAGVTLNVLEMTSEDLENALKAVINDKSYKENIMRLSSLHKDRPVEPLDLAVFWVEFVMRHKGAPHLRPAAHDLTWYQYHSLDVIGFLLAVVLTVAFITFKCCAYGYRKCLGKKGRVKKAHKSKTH
The data set is described as follows: Drug level assessed as human recombinant UGT1A1-mediated glucuronidation treated with 25 uM irilone incubated for 5 mins prior to UDPGA addition measured after 90 mins by HPLC-DAD analysis. Conditions: recombinant enzyme, 1.5 h.

For data set [4], the target named is T4, UDP-glucuronosyltransferase 1A8 (Homo sapiens, UniProt Q9HAW9).
T4 sequence (Q9HAW9 whole entry): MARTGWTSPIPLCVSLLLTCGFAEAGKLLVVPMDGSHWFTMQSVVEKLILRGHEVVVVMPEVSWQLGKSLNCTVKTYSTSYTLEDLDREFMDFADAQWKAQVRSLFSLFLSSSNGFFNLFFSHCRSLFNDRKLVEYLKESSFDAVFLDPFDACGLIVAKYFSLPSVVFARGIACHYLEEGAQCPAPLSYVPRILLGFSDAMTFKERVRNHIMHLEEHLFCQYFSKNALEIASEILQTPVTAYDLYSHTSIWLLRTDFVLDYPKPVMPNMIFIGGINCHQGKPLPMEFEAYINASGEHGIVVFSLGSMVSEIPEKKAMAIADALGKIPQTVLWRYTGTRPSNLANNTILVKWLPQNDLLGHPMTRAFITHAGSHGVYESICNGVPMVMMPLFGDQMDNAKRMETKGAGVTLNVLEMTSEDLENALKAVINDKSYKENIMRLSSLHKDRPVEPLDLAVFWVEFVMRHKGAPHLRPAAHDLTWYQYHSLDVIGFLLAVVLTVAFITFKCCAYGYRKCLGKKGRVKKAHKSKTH
The data set is described as follows: Drug level assessed as human recombinant UGT1A8-mediated glucuronidation treated with 25 uM irilone incubated for 5 mins prior to UDPGA addition measured after 90 mins by HPLC-DAD analysis. The conditions noted are these: recombinant enzyme, 1.5 h.

The target in data set [5] is T2, UDP-glucuronosyltransferase 1A9. The data set is described as follows: Activity of human recombinant UGT1A9 at 100 uM. The conditions noted are these: recombinant enzyme.
Data set [6] has as its target T5, UDP-glucuronosyltransferase 1A10 (Homo sapiens, UniProt Q9HAW8).
T5 sequence (Q9HAW8 whole entry): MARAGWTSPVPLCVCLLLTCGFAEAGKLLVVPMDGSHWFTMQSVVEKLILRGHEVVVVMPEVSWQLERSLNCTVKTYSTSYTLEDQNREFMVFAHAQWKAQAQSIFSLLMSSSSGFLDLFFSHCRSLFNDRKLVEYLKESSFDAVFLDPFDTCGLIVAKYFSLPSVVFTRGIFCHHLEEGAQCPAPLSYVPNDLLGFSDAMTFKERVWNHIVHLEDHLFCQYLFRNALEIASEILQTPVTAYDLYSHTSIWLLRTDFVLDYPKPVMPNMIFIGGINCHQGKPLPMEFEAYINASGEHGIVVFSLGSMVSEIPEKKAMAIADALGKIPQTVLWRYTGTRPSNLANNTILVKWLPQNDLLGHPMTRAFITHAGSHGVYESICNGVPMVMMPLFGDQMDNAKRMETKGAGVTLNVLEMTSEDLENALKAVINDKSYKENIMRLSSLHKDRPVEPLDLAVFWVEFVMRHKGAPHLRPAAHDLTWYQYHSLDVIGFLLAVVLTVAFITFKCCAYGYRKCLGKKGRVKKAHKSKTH
The data set is described as follows: Activity of human recombinant UGT1A10 at 100 uM. Conditions: recombinant enzyme.

Data set [7] deals with T2, UDP-glucuronosyltransferase 1A9. The data set is described as follows: Activity of human recombinant UGT1A9 assessed as […]-O-4'-monoglucuronide formation incubated for 5 mins prior to UDPGA addition measured after 90 mins by HPLC-DAD analysis. Conditions: recombinant enzyme, 1.5 h.
Data set [8] concerns the target T5, UDP-glucuronosyltransferase 1A10. The data set is described as follows: Activity of human recombinant UGT1A10 assessed as […]-O-4'-monoglucuronide formation incubated for 5 mins prior to UDPGA addition measured after 90 mins by HPLC-DAD analysis. Conditions: recombinant enzyme, 1.5 h.

The structures appear in SMILES notation.

With `O=C(O)[C@H]1O[C@@H](Oc2c3c(cc4occ(-c5ccc(O)cc5)c(=O)c24)OCO3)[C@H](O)[C@@H](O)[C@@H]1O`, the Drug metabolism result in data set [1], in data set [2], in data set [3] and in data set [4] was “metabolite_detected” throughout.
With `O=c1c(-c2ccc(O)cc2)coc2cc(O)ccc12` [DAIDZEIN], the Activity in data set [5] and in data set [6] was 0.5 nmol/mg/min in each case.
With `O=c1c(-c2ccc(O)cc2)coc2cc(O)cc(O)c12` [GENISTEIN], the Activity in data set [5] and in data set [6] was 0.5 nmol/mg/min each time.
`COc1c2c(cc3occ(-c4ccc(O)cc4)c(=O)c13)OCO2` [IRISOLONE]: the Drug metabolism entry in data set [7] was “metabolite_not_detected”; in data set [8], “metabolite_detected”.
